Patent US12371454B2, “Cyclic peptide compound having Kras inhibitory action” (priority 2019, dated 2025)
Starred links: 1 amine or outer side, 2 acyl side, 3 side chain; linkers in the order of their positions; H or OH if unused. Positions of bridges follow the written chain, without caps; N, C: chain ends. Non-standard residues stand in square brackets, D forms with d. Residues, ends and D or L forms follow the SMILES beside them. *: point of attachment. hPhe(3-Cl-4-CF3) = N[C@@H](CCc1ccc(C(F)(F)F)c(Cl)c1)C(=O)O; hPhe(3-F,4-CF3) = N[C@@H](CCc1ccc(C(F)(F)F)c(F)c1)C(=O)O; hPhe(4-CF3) = N[C@@H](CCc1ccc(C(F)(F)F)cc1)C(=O)O; NMePhe(4-Cl) = CN[C@@H](Cc1ccc(Cl)cc1)C(=O)O; NMePhe(4-Me) = CN[C@@H](Cc1ccc(C)cc1)C(=O)O; NMePhe(3-F) = CN[C@@H](Cc1cccc(F)c1)C(=O)O; NMeMet(O2) = CN[C@@H](CCS(C)(=O)=O)C(=O)O; NMedβ3hAla = C[C@H](CC(=O)[*:2])N(C)[*:1]; Abu(4,4,4-F3) = N[C@@H](CC(F)(F)F)C(=O)O; Phe(3-Cl) = N[C@@H](Cc1cccc(Cl)c1)C(=O)O; NMeGly(cPent) = CN[C@H](C(=O)O)C1CCCC1; Phe(3-I) = N[C@@H](Cc1cccc(I)c1)C(=O)O; Pro(4,4-F2) = O=C(O)[C@@H]1CC(F)(F)CN1; NMeCha = CN[C@@H](CC1CCCCC1)C(=O)O; X2 = C=CC[C@](C)(N[*:1])C(=O)[*:2]; Azetidine(3,3-F2) = FC1(F)CN(*)C1; NMeCba = CN[C@@H](CC1CCC1)C(=O)O; NMeChg = CN[C@H](C(=O)O)C1CCCCC1; NMeF = CN[C@@H](Cc1ccccc1)C(=O)O; N(CH2CH2)2CF2 = FC1(F)CCN(*)CC1; NMeβAla = CN(CCC(=O)[*:2])[*:1]; NMeD = CN[C@@H](CC(=O)O)C(=O)O; CH2CONHtBu = CC(C)(C)NC(=O)C*; NMeL = CN[C@@H](CC(C)C)C(=O)O; NMeV = CN[C@H](C(=O)O)C(C)C; Trifluoroethyl = FC(F)(F)C*; d(β3hA) = C[C@@H](N)CC(=O)O; NMeS = CN[C@@H](CO)C(=O)O; Pip = O=C(O)[C@@H]1CCCCN1; Ac6c = NC1(C(=O)O)CCCCC1; NMeA = CN[C@@H](C)C(=O)O; Nle = CCCC[C@H](N)C(=O)O; Piperidide = C1CCN(*)CC1; Pyrrolidide = C1CCN(*)C1; Ac5c = NC1(C(=O)O)CCCC1; Aze = O=C(O)[C@@H]1CCN1; Abu = CC[C@H](N)C(=O)O; Ac4c = NC1(C(=O)O)CCC1; CH2CMe2OH = CC(C)(O)C*; Cyclobutyl = C1CC(*)C1; NEtG = CCNCC(=O)O; βAla = NCCC(=O)O; Sar = CNCC(=O)O

The compounds below were run against T1, Kras and SOS1 (biotin-tagged human Kras loaded with GDP, His-tagged human SOS1) (Homo sapiens, UniProt P01116, G12D) (assay: Protein-protein interaction inhibition between Kras and SOS1 (KrasGl2D-SOS PPI) using AlphaScreen). Details: AlphaScreen; biotin-tagged human Kras loaded with GDP, His-tagged human SOS1; read-out: KRAS G12D-SOS PPI IC50.
T1 construct: made in house; host or cells: E. coli (stated for Kras only)
Format: binding
Procedure, shortened: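 AlphaScreen format: Ni donor beads capture His-SOS1, streptavidin acceptor beads capture biotinylated Kras (E. coli-expressed, GDP-loaded post-purification). Excite 680 nm, read 520-620 nm.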

T1 sequence (P01116 1-188 isoform P01116-2 G12D): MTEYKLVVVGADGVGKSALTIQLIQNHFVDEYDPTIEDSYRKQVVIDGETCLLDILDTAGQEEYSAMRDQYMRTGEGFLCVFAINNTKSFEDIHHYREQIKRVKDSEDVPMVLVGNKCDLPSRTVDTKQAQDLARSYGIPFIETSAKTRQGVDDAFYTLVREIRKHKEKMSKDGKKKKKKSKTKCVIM

Compound	IC50
CC[C@H](C)[C@@H]1NC(=O)[C@H](CC(C)C)N(C)C(=O)C[C@@H](C(=O)N2CCCCC2)N(C)C(=O)[C@H](COCC(F)(F)F)N(C)C(=O)C2(CCCC2)NC(=O)[C@@H]2CCCN2C(=O)[C@H](CCc2ccc(C(F)(F)F)c(Cl)c2)NC(=O)CN(C)C(=O)[C@H](CC2CCCCC2)N(C)C(=O)CN(C)C(=O)CN(C)C1=O [Compound 208] ([NMeL]I[Sar][Sar][NMeCha][Sar][hPhe(3-Cl-4-CF3)]P[Ac5c][NMeS](Trifluoroethyl)[NMeD]-Piperidide; lactam N-11)	0.12 µM
CC[C@H](C)[C@@H]1NC(=O)[C@H](CC(C)C)N(C)C(=O)C[C@@H](C)NC(=O)[C@H](C(C)C)N(C)C(=O)C2(CCCC2)NC(=O)[C@@H]2CCCN2C(=O)[C@H](CCc2ccc(C(F)(F)F)c(Cl)c2)NC(=O)CN(C)C(=O)[C@H](CC2CCCCC2)N(C)C(=O)CN(C)C(=O)CN(CC)C1=O [Compound 210] (cyclo([Ac5c][NMeV][d(β3hA)][NMeL]I[NEtG][Sar][NMeCha][Sar][hPhe(3-Cl-4-CF3)]P))	0.08 µM
CC[C@H](C)[C@@H]1NC(=O)[C@@H]2CCCCN2C(=O)C[C@@H](C)NC(=O)[C@H](CC(C)C)N(C)C(=O)C2(CCCC2)NC(=O)[C@H](CC(C)C)N(C)C(=O)[C@H](CCc2ccc(C(F)(F)F)c(Cl)c2)NC(=O)CN(C)C(=O)[C@H](CC2CCCCC2)N(C)C(=O)CN(C)C(=O)CN(C)C1=O [Compound 213] (cyclo([Ac5c][NMeL][d(β3hA)][Pip]I[Sar][Sar][NMeCha][Sar][hPhe(3-Cl-4-CF3)][NMeL]))	0.048 µM
CC[C@H](C)[C@@H]1NC(=O)[C@H](CC(C)C)N(C)C(=O)C[C@@H](C(=O)N(C)C)N(C)C(=O)[C@H](C(C)C)N(C)C(=O)C2(CCCC2)NC(=O)[C@H](CC(=O)N2CCC(F)(F)CC2)N(C)C(=O)[C@H](CCc2ccc(C(F)(F)F)c(Cl)c2)NC(=O)CN(C)C(=O)[C@H](CC2CCCCC2)N(C)C(=O)CN(C)C(=O)CN(C)C1=O [Compound 218] ([NMeL]I[Sar][Sar][NMeCha][Sar][hPhe(3-Cl-4-CF3)][NMeD](N(CH2CH2)2CF2)[Ac5c][NMeV][NMeD]-NMe2; lactam N-11)	0.0019 µM
CC[C@H](C)[C@@H]1NC(=O)[C@H](CC(C)C)N(C)C(=O)C[C@@H](C(=O)N(C)C)N(C)C(=O)[C@H](C2CCCC2)N(C)C(=O)[C@H](CC(F)(F)F)NC(=O)[C@H](CC(=O)N2CC(F)(F)C2)N(C)C(=O)[C@H](CCc2ccc(C(F)(F)F)c(Cl)c2)NC(=O)CN(C)C(=O)[C@H](CC2CCCCC2)N(C)C(=O)[C@@H]2CCN2C(=O)[C@H](C)N(C)C1=O [Compound 222] ([NMeL]I[NMeA][Aze][NMeCha][Sar][hPhe(3-Cl-4-CF3)][NMeD](Azetidine(3,3-F2))[Abu(4,4,4-F3)][NMeGly(cPent)][NMeD]-NMe2; lactam N-11)	0.02 µM
CC[C@H](C)[C@@H]1NC(=O)[C@H](C)N(C)C(=O)C[C@@H](C(=O)N2CCCC2)NC(=O)[C@H](C(C)C)N(C)C(=O)[C@H](Cc2ccccc2)N(C)C(=O)[C@H](Cc2ccccc2)NC(=O)[C@H](Cc2cccc(Cl)c2)NC(=O)CN(C)C(=O)[C@H](Cc2ccc(Cl)cc2)N(C)C(=O)CN(C)C(=O)CN(CC)C1=O [Compound 224] ([NMeA]I[NEtG][Sar][NMePhe(4-Cl)][Sar][Phe(3-Cl)]F[NMeF][NMeV]D-Pyrrolidide; lactam N-11)	0.23 µM
CC(C)C[C@H]1C(=O)N[C@@H](COC2CCC2)C(=O)N(C)CC(=O)N(C)CC(=O)N(C)[C@@H](CC2CCCCC2)C(=O)N(C)CC(=O)N[C@@H](CCc2ccc(C(F)(F)F)c(Cl)c2)C(=O)N2CCC[C@H]2C(=O)NC2(CCCC2)C(=O)N(C)[C@@H](C2CCCCC2)C(=O)N(C)[C@H](C(=O)N2CCCCC2)CC(=O)N1C [Compound 226] ([NMeL]S(Cyclobutyl)[Sar][Sar][NMeCha][Sar][hPhe(3-Cl-4-CF3)]P[Ac5c][NMeChg][NMeD]-Piperidide; lactam N-11)	0.0035 µM
CC[C@H](C)[C@@H]1NC(=O)[C@H](CC2CCC2)N(C)C(=O)C[C@@H](C)NC(=O)[C@H](C(C)C)N(C)C(=O)C2(CCCC2)NC(=O)[C@@H]2CCCN2C(=O)[C@H](CCc2ccc(C(F)(F)F)c(Cl)c2)NC(=O)CN(C)C(=O)[C@H](CC2CCCCC2)N(C)C(=O)CN(C)C(=O)CN(C)C1=O [Compound 230] (cyclo([Ac5c][NMeV][d(β3hA)][NMeCba]I[Sar][Sar][NMeCha][Sar][hPhe(3-Cl-4-CF3)]P))	0.039 µM
CC[C@H](C)[C@@H]1NC(=O)[C@H](CC(C)C)N(C)C(=O)C[C@@H](C)NC(=O)[C@H](CC(C)C)N(C)C(=O)C2(CCCCC2)NC(=O)[C@@H]2CCCN2C(=O)[C@H](CCc2ccc(C(F)(F)F)c(F)c2)NC(=O)CN(C)C(=O)[C@H](CC2CCCCC2)N(C)C(=O)CN(C)C(=O)CN(C)C1=O [Compound 231] (cyclo([Ac6c][NMeL][d(β3hA)][NMeL]I[Sar][Sar][NMeCha][Sar][hPhe(3-F,4-CF3)]P))	0.12 µM
CCCC[C@@H]1NC(=O)[C@H](Cc2cccc(I)c2)NC(=O)CN(C)C(=O)[C@H](Cc2ccc(C)cc2)N(C)C(=O)CN(C)C(=O)CN(C)C(=O)[C@H]([C@@H](C)CC)NC(=O)[C@H](CC(C)C)N(C)C(=O)C[C@@H](C(=O)N2CCCCC2)N(C)C(=O)[C@H](CC(C)C)NC(=O)[C@H](C)N(C)C1=O [Compound 232] ([NMeL]I[Sar][Sar][NMePhe(4-Me)][Sar][Phe(3-I)][Nle][NMeA]L[NMeD]-Piperidide; lactam N-11)	0.02 µM
CC[C@H](C)[C@@H]1NC(=O)[C@H](C)N(C)C(=O)C[C@@H](C(=O)N2CCCC2)NC(=O)[C@H](CC(C)C)N(C)C(=O)[C@H](Cc2ccccc2)N(C)C(=O)[C@H](COCC(=O)NC(C)(C)C)NC(=O)[C@H](CCc2ccc(C(F)(F)F)cc2)NC(=O)CN(C)C(=O)[C@H](Cc2ccc(Cl)cc2)N(C)C(=O)CN(C)C(=O)CN(C)C1=O [Compound 233] ([NMeA]I[Sar][Sar][NMePhe(4-Cl)][Sar][hPhe(4-CF3)]S(CH2CONHtBu)[NMeF][NMeL]D-Pyrrolidide; lactam N-11)	0.066 µM
CC[C@H](C)[C@@H]1NC(=O)[C@H](CC(C)C)N(C)C(=O)C[C@@H](C(=O)N2CCCCC2)N(C)C(=O)[C@H](C(C)C)N(C)C(=O)C2(CCCC2)NC(=O)[C@@H]2CCCN2C(=O)[C@H](CCc2ccc(C(F)(F)F)c(Cl)c2)NC(=O)CN(C)C(=O)[C@H](CCS(C)(=O)=O)N(C)C(=O)[C@@H]2CCN2C(=O)[C@H](C)N(C)C1=O [Compound 235] ([NMeL]I[NMeA][Aze][NMeMet(O2)][Sar][hPhe(3-Cl-4-CF3)]P[Ac5c][NMeV][NMeD]-Piperidide; lactam N-11)	0.011 µM
CC[C@H](C)[C@@H]1NC(=O)CCNC(=O)[C@H](Cc2cccc(F)c2)N(C)C(=O)[C@H](C2CCCCC2)N(C)C(=O)C2(CCCC2)NC(=O)[C@@H]2CCCN2C(=O)[C@H](CCc2ccc(C(F)(F)F)c(Cl)c2)NC(=O)CN(C)C(=O)[C@H](CC2CCCCC2)N(C)C(=O)CN(C)C(=O)CN(C)C1=O [Compound 237] (cyclo([Ac5c][NMeChg][NMePhe(3-F)][βAla]I[Sar][Sar][NMeCha][Sar][hPhe(3-Cl-4-CF3)]P))	0.042 µM
CC[C@@H]1NC(=O)[C@H](CC(=O)N2CCC(F)(F)CC2)N(C)C(=O)[C@H](CCc2ccc(C(F)(F)F)c(Cl)c2)NC(=O)CN(C)C(=O)[C@H](CC2CCCCC2)N(C)C(=O)CN(C)C(=O)CN(C)C(=O)[C@H]([C@@H](C)CC)NC(=O)[C@H](CC(C)C)N(C)C(=O)C[C@@H](C(=O)N2CCCCC2)N(C)C(=O)[C@H](C(C)C)N(C)C1=O [Compound 240] ([NMeL]I[Sar][Sar][NMeCha][Sar][hPhe(3-Cl-4-CF3)][NMeD](N(CH2CH2)2CF2)[Abu][NMeV][NMeD]-Piperidide; lactam N-11)	0.14 µM
CC[C@H](C)[C@@H]1NC(=O)[C@H](CC(C)C)N(C)C(=O)C[C@@H](C)N(C)C(=O)[C@H](C2CCCCC2)N(C)C(=O)C2(CCC2)NC(=O)[C@@H]2CC(F)(F)CN2C(=O)[C@H](CCc2ccc(C(F)(F)F)c(Cl)c2)NC(=O)CN(C)C(=O)[C@H](CC2CCCCC2)N(C)C(=O)CN(C)C(=O)CN(C)C1=O [Compound 241] (cyclo([Ac4c][NMeChg][NMedβ3hAla][NMeL]I[Sar][Sar][NMeCha][Sar][hPhe(3-Cl-4-CF3)][Pro(4,4-F2)]))	0.018 µM
C=CC[C@]1(C)NC(=O)[C@@H]2CCCN2C(=O)[C@H](CCc2ccc(C(F)(F)F)c(Cl)c2)NC(=O)CN(C)C(=O)[C@H](CC2CCCCC2)N(C)C(=O)CN(C)C(=O)CN(C)C(=O)[C@H]([C@@H](C)CC)NC(=O)[C@H](CC(C)C)N(C)C(=O)C[C@@H](C)NC(=O)[C@H](C(C)C)N(C)C1=O [Compound 242] (cyclo(I[Sar][Sar][NMeCha][Sar][hPhe(3-Cl-4-CF3)]P[X2][NMeV][d(β3hA)][NMeL]))	0.027 µM
CC[C@H](C)[C@@H]1NC(=O)CCN(C)C(=O)[C@H](COCC(C)(C)O)N(C)C(=O)[C@H](C2CCCC2)N(C)C(=O)C2(CCCC2)NC(=O)[C@@H]2CCCN2C(=O)[C@H](CCc2ccc(C(F)(F)F)c(Cl)c2)NC(=O)CN(C)C(=O)[C@H](CC2CCCCC2)N(C)C(=O)CN(C)C(=O)CN(C)C1=O [Compound 244] (cyclo([Ac5c][NMeGly(cPent)][NMeS](CH2CMe2OH)[NMeβAla]I[Sar][Sar][NMeCha][Sar][hPhe(3-Cl-4-CF3)]P))	0.14 µM
